This is an account of results in patent publication US20230220035A1 (DONG-A ST CO., LTD., published 2023).

Where two headings read alike, the source gives them in different places.

Data set [1] in a line: in vivo. The conditions noted are these: cynomolgus monkey, sc.
Description: (§1) Cynomolgus monkeys were used to evaluate the pharmacokinetics in monkeys of the acylated oxyntomodulin peptide analogs according to the present invention.
Data set [2] concerns the target T1, glucagon receptor (Homo sapiens, UniProt P47871). The conditions noted are these: from Korean Patent Application No. 2017-0103798 / 2018-0095717; cited from earlier work.
Target sequence in this assay (P47871 26-477, species assumed): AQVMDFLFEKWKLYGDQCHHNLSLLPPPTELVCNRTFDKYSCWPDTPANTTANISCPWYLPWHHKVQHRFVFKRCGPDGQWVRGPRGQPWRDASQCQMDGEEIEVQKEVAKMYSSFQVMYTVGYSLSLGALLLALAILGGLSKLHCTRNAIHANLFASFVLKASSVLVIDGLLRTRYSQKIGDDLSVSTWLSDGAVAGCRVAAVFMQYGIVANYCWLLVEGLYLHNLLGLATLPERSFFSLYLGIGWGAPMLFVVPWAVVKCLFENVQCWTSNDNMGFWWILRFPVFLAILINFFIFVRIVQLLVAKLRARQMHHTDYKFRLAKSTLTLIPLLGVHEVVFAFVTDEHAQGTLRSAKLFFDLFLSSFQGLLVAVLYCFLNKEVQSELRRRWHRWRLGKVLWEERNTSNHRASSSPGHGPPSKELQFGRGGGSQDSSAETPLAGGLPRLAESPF
In data set [3] the target is T1, glucagon receptor. Briefly: Human glucagon receptor activation assay (CRE-luciferase). In kind it is cell-based. More on the design: host or cells: CHO-K1. The conditions noted are these: CHO-K1 cells transiently transfected.
Target sequence in this assay (P47871 26-477): as the sequence (P47871 26-477, species assumed) above
The target of data set [4] is T2, GLP-1 receptor (Homo sapiens, UniProt P43220). The conditions noted are these: read-out: EC50 to the GLP-1 receptor; from Korean Patent Application No. 2017-0103798 / 2018-0095717; cited from earlier work.
Target sequence in this assay (P43220 24-463, species assumed): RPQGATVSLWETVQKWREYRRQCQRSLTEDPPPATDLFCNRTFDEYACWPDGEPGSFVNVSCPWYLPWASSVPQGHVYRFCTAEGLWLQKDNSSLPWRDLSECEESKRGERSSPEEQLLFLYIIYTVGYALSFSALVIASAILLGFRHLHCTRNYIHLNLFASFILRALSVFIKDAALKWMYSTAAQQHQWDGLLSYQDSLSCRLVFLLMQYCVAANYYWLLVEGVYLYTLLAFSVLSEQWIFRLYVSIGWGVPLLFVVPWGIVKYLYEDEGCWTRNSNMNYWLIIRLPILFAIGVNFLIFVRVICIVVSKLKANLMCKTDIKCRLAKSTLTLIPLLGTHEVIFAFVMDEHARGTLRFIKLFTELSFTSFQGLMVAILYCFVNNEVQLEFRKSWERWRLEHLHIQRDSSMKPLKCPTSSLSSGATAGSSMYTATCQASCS
Data set [5] concerns the target T2, GLP-1 receptor. The data set is described as follows: Human GLP-1 receptor activation assay (CRE-luciferase). More on the design: host or cells: CHO-K1. In kind it is cell-based.
Target sequence in this assay (P43220 24-463): as the sequence (P43220 24-463, species assumed) above
Data set [6] is described as follows: in vivo. Particulars: mouse.
Description: (§2) ICR mice were used to evaluate the pharmacokinetics in mice of the acylated oxyntomodulin peptide analogs according to the present invention.
The nature of data set [7]: Single-dose pharmacokinetic profile in monkeys. The conditions noted are these: cynomolgus monkey, plasma, sc, 100 nmmol/kg, Monkey PK (S.C. half-life), single S.C. dose 100 nmmol/kg.
Description: as §1
The nature of data set [8]: Single-dose pharmacokinetic profile in mice. The conditions noted are these: mouse.
Description: as §2

What is called half-life is the time in which the quantity being followed falls by half. What is called EC50 is the concentration needed to bring the measured effect to its halfway point. Regarding `CCCCCCCCCCCCCCCCCC(=O)N[C@@H](CCC(=O)NCCOCCOCC(=O)NCCOCCOCC(=O)NCCCC[C@H](NC(=O)[C@H](CC(=O)O)NC(=O)[C@H](CO)NC(=O)[C@@H](NC(=O)[C@H](Cc1ccccc1)NC(=O)[C@@H](NC(=O)CNC(=O)[C@H](CCC(N)=O)NC(=O)C(C)(C)NC(=O)[C@@H](N)Cc1c[nH]cn1)[C@@H](C)O)[C@@H](C)O)C(=O)N[C@@H](CO)C(=O)N[C@@H](CCCCN)C(=O)N[C@@H](Cc1ccc(O)cc1)C(=O)N[C@@H](CC(C)C)C(=O)N[C@@H](CC(=O)O)C(=O)NC(C)(C)C(=O)N[C@@H](CCCNC(=N)N)C(=O)N[C@@H](CCCNC(=N)N)C(=O)N[C@@H](C)C(=O)N[C@@H](CCC(N)=O)C(=O)N[C@@H](CC(=O)O)C(=O)N[C@@H](Cc1ccccc1)C(=O)N[C@H](C(=O)N[C@@H](CCC(N)=O)C(=O)N[C@@H](Cc1c[nH]c2ccccc12)C(=O)N[C@@H](CC(C)C)C(=O)N[C@@H](CCSC)C(=O)N[C@@H](CC(N)=O)C(=O)N[C@H](C(=O)N[C@@H](CCCCN)C(=O)N[C@@H](CCC(=O)O)C(=O)N[C@@H](Cc1ccc(O)cc1)C(=O)N[C@@H](CCC(=O)O)C(=O)N[C@@H](CCCCNC(=O)CCCCCCCCCCCCCCCCC(=O)O)C(=O)N[C@@H](CCC(=O)O)C(=O)N[C@@H](Cc1ccc(O)cc1)C(=O)N[C@@H](CCC(=O)O)C(=O)O)[C@@H](C)O)C(C)C)C(=O)O` [Compound 3], the half-life in “in vivo [1]” (Monkey PK (S.C. half-life)) was over 24 h; in “in vivo [1]” (monkey PK half-life) it was over 24 h; in the data set “in vivo [6]” (ICR, sc, Mouse PK (S.C. half-life)), over 6 h; in “in vivo [6]” (ICR, sc, half-life in mice) it was over 6 h; in the data set “in vivo [6]” (half-life, pharmacokinetic evaluation in mice (background)), 3.3 h. Besides, the EC50 on glucagon receptor [2] is under 0.01 nM; on glucagon receptor [3] (6 hours, 0.1% BSA, read-out: GCG receptor EC50) it was 0.1 to 1 nM; on GLP-1 receptor [4] it was under 0.01 nM; on GLP-1 receptor [5] (CHO-K1 cells transiently transfected, luciferase, 6 hours, 0.1% BSA) it was 0.1 to 1 nM. The Emax on glucagon receptor [3] (6 h, relative to glucagon, read-out: GCG receptor Maximum activation (% vs GCG)) amounted to 98.3%; on GLP-1 receptor [5] (CHO-K1, 6 h, read-out: GLP-1 receptor Maximum activation (% vs GLP-1)), 98.3%.

As to `CCCCCCCCCCCCCCCC(=O)N[C@@H](CCC(=O)NCCCC[C@H](NC(=O)[C@H](CC(=O)O)NC(=O)[C@H](CO)NC(=O)[C@@H](NC(=O)[C@H](Cc1ccccc1)NC(=O)[C@@H](NC(=O)CNC(=O)[C@H](CCC(N)=O)NC(=O)[C@H](CO)NC(=O)[C@@H](N)Cc1c[nH]cn1)[C@@H](C)O)[C@@H](C)O)C(=O)N[C@@H](CO)C(=O)N[C@@H](CCC(=O)O)C(=O)N[C@@H](Cc1ccc(O)cc1)C(=O)N[C@@H](CC(C)C)C(=O)N[C@@H](CC(=O)O)C(=O)N[C@@H](CO)C(=O)N[C@@H](CCC(=O)O)C(=O)N[C@@H](CCCNC(=N)N)C(=O)N[C@@H](C)C(=O)N[C@@H](CCCNC(=N)N)C(=O)N[C@@H](CC(=O)O)C(=O)N[C@@H](Cc1ccccc1)C(=O)N[C@H](C(=O)N[C@@H](C)C(=O)N[C@@H](Cc1c[nH]c2ccccc12)C(=O)N[C@@H](CC(C)C)C(=O)N[C@@H](CCC(=O)O)C(=O)N[C@@H](C)C(=O)NCC(=O)NCC(=O)O)C(C)C)C(=O)O` [MEDI0382], the half-life was under 6 h in data set [7]; under 6 h in data set [8] (ICR, plasma, sc, 30 nmmol/kg, Mouse PK (S.C. half-life), ICR mice, single S.C. dose 30 nmmol/kg); 4 h in data set [8] (in vivo, half-life, pharmacokinetic evaluation in mice (background), mice, dose not given).
